Laboratory results taken from US20230310540A1, “PEPTIDE COMPOSITIONS AND METHODS OF USE THEREOF” (priority 2020, published 2023).
Converted amounts (≈) assume the structure as drawn. Like-named read-outs stand apart in the source and are kept apart here.

Key:
[1] = system: Methicillin-resistant Staphylococcus aureus (SAP400); experiment: Broth dilution MIC against MRSA isolate; assay type: cell-based
[2] = system: Acinetobacter baumannii (PDR); experiment: Broth dilution MIC against pan drug-resistant A. baumannii isolate; assay type: cell-based; details: isolate AB (PDR)
[3] = system: Klebsiella pneumoniae clinical isolates
[4] = system: Pseudomonas aeruginosa (CF mucoid and non-mucoid); experiment: Broth dilution MIC against P. aeruginosa isolates from cystic fibrosis patients; assay type: cell-based
[5] = isolate KP (Morici), ATCC #33495

| Compound | MIC [1] [µM] | MIC [2] [µM] | MIC ([3]; isolate KP 2146 (NDM-1)) [µM] | MIC ([3]; isolate KP (6)) [µM] | MIC ([3]; isolate KP (46)) [µM] | MIC ([3]; isolate KP (398)) [µM] | MIC ([3]; isolate KP (CRE)) [µM] | MIC [3, 5] [µM] | MIC ([3]; isolate KP (ST258C3)) [µM] | MIC ([3]; isolate KP (ST258I2)) [µM] | MIC ([3]; isolate KP (ST396)) [µM] | MIC ([3]; isolate KP (St258 C2)) [µM] | MIC ([4]; isolate PA (mucoid)) [µM] | MIC ([4]; isolate PA (non-mucoid)) [µM] |
| --- | --- | --- | --- | --- | --- | --- | --- | --- | --- | --- | --- | --- | --- | --- |
| CC(C)(O/N=C(\C(=O)N[C@@H]1C(=O)N2C(C(=O)[O-])=C(C[n+]3ccccc3)CS[C@H]12)c1csc(N)n1)C(=O)O [CAZ, Ceftazidime] | >150 | >150 | >150 | >150 | >150 | 132.7 (≈ 72.5 µg/mL) | >150 | >150 | >150 | >150 | >150 | >150 | 115.9 (≈ 63.3 µg/mL) | >150 |
| CO/N=C(\C(=O)N[C@@H]1C(=O)N2C(C(=O)O)=C(CSc3nc(=O)c(O)nn3C)CS[C@H]12)c1csc(N)n1 [CRO, Ceftriaxone] | >150 | >150 | >150 | >150 | 1.9 (≈ 1.05 µg/mL) | 0.2 (≈ 0.111 µg/mL) | 45 (≈ 25 µg/mL) | 0.3 (≈ 0.166 µg/mL) | >150 | >150 | 1.9 (≈ 1.05 µg/mL) | >150 | 137.2 (≈ 76.1 µg/mL) | 88.45 (≈ 49.1 µg/mL) |
| C[C@@H](O)[C@H]1C(=O)N2C(C(=O)O)=C(S[C@@H]3CN[C@H](C(=O)N(C)C)C3)[C@H](C)[C@H]12 [MEM, Meropenem] | >150 | >150 | >150 | 0.2 (≈ 0.0767 µg/mL) | 0.4 (≈ 0.153 µg/mL) | 0.2 (≈ 0.0767 µg/mL) | 108.3 (≈ 41.5 µg/mL) | 0.2 (≈ 0.0767 µg/mL) | >150 | >150 | 0.3 (≈ 0.115 µg/mL) | >150 | 13.3 (≈ 5.1 µg/mL) | 4 (≈ 1.53 µg/mL) |
| Gentamicin | >150 | >150 | >150 | >150 | 1.6 | 1.9 | 5.2 | 1.9 | >150 | 8.3 | 2 | >150 | 5.5 | 8.3 |
